Assay results taken from PubChem BioAssay AID2060893 (Molecular Pharmacology Branch, DTP, NCI, 2025).

System: K86415-001-R-J1-PDC complex spheroids, viability
Assay: Anticancer human tumor K86415-001-R-J1-PDC patient-derived lung adenocarcinoma cell line growth inhibition [RAS]
Settings: for IC50: curve of first compound; for viability, T/C: stronger effect = lower value
Outline: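 Agents were tested in combination matrices in half-log decrements from a top concentration at or near clinical Cmax (10 microM if undetermined). Targets were multi-cell spheroids of tumour lines plus HUVEC and MSC stromal cells.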

[1] = second compound 0.000949 µM, first compound 0.0316 µM
[2] = second compound 0.000949 µM, first compound 0.1 µM
[3] = second compound 0.000949 µM, first compound 0.316 µM
[4] = second compound 0.000949 µM, first compound 1 µM
[5] = second compound 0.003 µM, first compound 0.0316 µM
[6] = second compound 0.003 µM, first compound 0.1 µM
[7] = second compound 0.003 µM, first compound 0.316 µM
[8] = second compound 0.003 µM, first compound 1 µM
[9] = second compound 0.00949 µM, first compound 0.0316 µM
[10] = second compound 0.00949 µM, first compound 0.1 µM
[11] = second compound 0.00949 µM, first compound 0.316 µM
[12] = second compound 0.00949 µM, first compound 1 µM
[13] = second compound 0.03 µM, first compound 0.0316 µM
[14] = second compound 0.03 µM, first compound 0.1 µM
[15] = second compound 0.03 µM, first compound 0.316 µM
[16] = second compound 0.03 µM, first compound 1 µM
[17] = second compound 0.0949 µM, first compound 0.0316 µM
[18] = second compound 0.0949 µM, first compound 0.1 µM
[19] = second compound 0.0949 µM, first compound 0.316 µM
[20] = second compound 0.0949 µM, first compound 1 µM
[21] = second compound 0.3 µM, first compound 0.0316 µM
[22] = second compound 0.3 µM, first compound 0.1 µM
[23] = second compound 0.3 µM, first compound 0.316 µM
[24] = second compound 0.3 µM, first compound 1 µM
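Note: spheroids exposed to agents for seven days before readout.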

CC(=O)OC12COC1CC(O)C1(C)C(=O)C(O)C3=C(C)C(OC(=O)C(O)C(NC(=O)OC(C)(C)C)c4ccccc4)CC(O)(C(OC(=O)c4ccccc4)C21)C3(C)C (stereo unspecified) + CCn1c(-c2cc(N3CCN(C)CC3)cnc2C(C)OC)c2c3cc(ccc31)-c1csc(n1)CC(NC(=O)C1CC1C)C(=O)N1CCCC(N1)C(=O)OCC(C)(C)C2
IC50 (second compound 0.000949 µM): < 31.6 nM
IC50 (second compound 0.003 µM): < 31.6 nM
IC50 (second compound 0.00949 µM): < 31.6 nM
IC50 (second compound 0.03 µM): < 31.6 nM
IC50 (second compound 0.0949 µM): < 31.6 nM
IC50 (second compound 0.3 µM): < 31.6 nM
viability, T/C [1]: 26.9%
viability, T/C [2]: 21.5%
viability, T/C [3]: 17.2%
viability, T/C [4]: 22.7%
viability, T/C (second compound 0.000949 µM, first compound 3.16 µM): 25.3%
viability, T/C (second compound 0.000949 µM, first compound 10 µM): 19%
viability, T/C [5]: 19.2%
viability, T/C [6]: 15.6%
viability, T/C [7]: 15.1%
viability, T/C [8]: 16.7%
viability, T/C (second compound 0.003 µM, first compound 3.16 µM): 15%
viability, T/C (second compound 0.003 µM, first compound 10 µM): 12.8%
viability, T/C [9]: 9.53%
viability, T/C [10]: 7.3%
viability, T/C [11]: 7.91%
viability, T/C [12]: 7.79%
viability, T/C (second compound 0.00949 µM, first compound 3.16 µM): 5.97%
viability, T/C (second compound 0.00949 µM, first compound 10 µM): 6.51%
viability, T/C [13]: 5.56%
viability, T/C [14]: 5.63%
viability, T/C [15]: 4.4%
viability, T/C [16]: 3.98%
viability, T/C (second compound 0.03 µM, first compound 3.16 µM): 2.48%
viability, T/C (second compound 0.03 µM, first compound 10 µM): 2.81%
viability, T/C [17]: 3.04%
viability, T/C [18]: 2.69%
viability, T/C [19]: 2.48%
viability, T/C [20]: 1.97%
viability, T/C (second compound 0.0949 µM, first compound 3.16 µM): 2.21%
viability, T/C (second compound 0.0949 µM, first compound 10 µM): 2.4%
viability, T/C [21]: 2.05%
viability, T/C [22]: 2.39%
viability, T/C [23]: 1.97%
viability, T/C [24]: 2.03%
viability, T/C (second compound 0.3 µM, first compound 3.16 µM): 2.06%
viability, T/C (second compound 0.3 µM, first compound 10 µM): 1.73%

CCc1c2c(nc3ccc(O)cc13)-c1cc3c(c(=O)n1C2)COC(=O)[C@]3(O)CC + CCn1c(-c2cc(N3CCN(C)CC3)cnc2C(C)OC)c2c3cc(ccc31)-c1csc(n1)CC(NC(=O)C1CC1C)C(=O)N1CCCC(N1)C(=O)OCC(C)(C)C2
IC50 (second compound 0.000949 µM): < 0.949 nM
IC50 (second compound 0.003 µM): < 0.949 nM
IC50 (second compound 0.00949 µM): < 0.949 nM
IC50 (second compound 0.03 µM): < 0.949 nM
IC50 (second compound 0.0949 µM): < 0.949 nM
IC50 (second compound 0.3 µM): < 0.949 nM
viability, T/C (second compound 0.000949 µM, first compound 0.000949 µM): 43.2%
viability, T/C (second compound 0.000949 µM, first compound 0.003 µM): 23.9%
viability, T/C (second compound 0.000949 µM, first compound 0.00949 µM): 12.9%
viability, T/C (second compound 0.000949 µM, first compound 0.03 µM): 16.1%
viability, T/C (second compound 0.000949 µM, first compound 0.0949 µM): 11.6%
viability, T/C (second compound 0.000949 µM, first compound 0.3 µM): 4.09%
viability, T/C (second compound 0.003 µM, first compound 0.000949 µM): 22%
viability, T/C (second compound 0.003 µM, first compound 0.003 µM): 13.5%
viability, T/C (second compound 0.003 µM, first compound 0.00949 µM): 12.4%
viability, T/C (second compound 0.003 µM, first compound 0.03 µM): 13.3%
viability, T/C (second compound 0.003 µM, first compound 0.0949 µM): 10.2%
viability, T/C (second compound 0.003 µM, first compound 0.3 µM): 3.14%
viability, T/C (second compound 0.00949 µM, first compound 0.000949 µM): 9.02%
viability, T/C (second compound 0.00949 µM, first compound 0.003 µM): 7.98%
viability, T/C (second compound 0.00949 µM, first compound 0.00949 µM): 8.68%
viability, T/C (second compound 0.00949 µM, first compound 0.03 µM): 8.25%
viability, T/C (second compound 0.00949 µM, first compound 0.0949 µM): 5.09%
viability, T/C (second compound 0.00949 µM, first compound 0.3 µM): 2.46%
viability, T/C (second compound 0.03 µM, first compound 0.000949 µM): 5.24%
viability, T/C (second compound 0.03 µM, first compound 0.003 µM): 5.47%
viability, T/C (second compound 0.03 µM, first compound 0.00949 µM): 3.66%
viability, T/C (second compound 0.03 µM, first compound 0.03 µM): 3.44%
viability, T/C (second compound 0.03 µM, first compound 0.0949 µM): 2.88%
viability, T/C (second compound 0.03 µM, first compound 0.3 µM): 1.87%
viability, T/C (second compound 0.0949 µM, first compound 0.000949 µM): 3.46%
viability, T/C (second compound 0.0949 µM, first compound 0.003 µM): 3.37%
viability, T/C (second compound 0.0949 µM, first compound 0.00949 µM): 2.84%
viability, T/C (second compound 0.0949 µM, first compound 0.03 µM): 2.41%
viability, T/C (second compound 0.0949 µM, first compound 0.0949 µM): 1.76%
viability, T/C (second compound 0.0949 µM, first compound 0.3 µM): 0.94%
viability, T/C (second compound 0.3 µM, first compound 0.000949 µM): 2.47%
viability, T/C (second compound 0.3 µM, first compound 0.003 µM): 2.36%
viability, T/C (second compound 0.3 µM, first compound 0.00949 µM): 2.47%
viability, T/C (second compound 0.3 µM, first compound 0.03 µM): 2.01%
viability, T/C (second compound 0.3 µM, first compound 0.0949 µM): 2.07%
viability, T/C (second compound 0.3 µM, first compound 0.3 µM): 0.89%

Nc1ccn(C2OC(CO)C(O)C2(F)F)c(=O)n1 (stereo unspecified) + CCn1c(-c2cc(N3CCN(C)CC3)cnc2C(C)OC)c2c3cc(ccc31)-c1csc(n1)CC(NC(=O)C1CC1C)C(=O)N1CCCC(N1)C(=O)OCC(C)(C)C2
IC50 (second compound 0.000949 µM): < 3.16 nM
IC50 (second compound 0.003 µM): < 3.16 nM
IC50 (second compound 0.00949 µM): < 3.16 nM
IC50 (second compound 0.03 µM): < 3.16 nM
IC50 (second compound 0.0949 µM): < 3.16 nM
IC50 (second compound 0.3 µM): < 3.16 nM
viability, T/C (second compound 0.000949 µM, first compound 0.00316 µM): 47%
viability, T/C (second compound 0.000949 µM, first compound 0.01 µM): 45.2%
viability, T/C [1]: 34%
viability, T/C [2]: 26.3%
viability, T/C [3]: 21.8%
viability, T/C [4]: 16.3%
viability, T/C (second compound 0.003 µM, first compound 0.00316 µM): 24.2%
viability, T/C (second compound 0.003 µM, first compound 0.01 µM): 19.4%
viability, T/C [5]: 18.2%
viability, T/C [6]: 19.3%
viability, T/C [7]: 15.4%
viability, T/C [8]: 11.8%
viability, T/C (second compound 0.00949 µM, first compound 0.00316 µM): 11.9%
viability, T/C (second compound 0.00949 µM, first compound 0.01 µM): 8.79%
viability, T/C [9]: 10.1%
viability, T/C [10]: 13.8%
viability, T/C [11]: 9.53%
viability, T/C [12]: 9.18%
viability, T/C (second compound 0.03 µM, first compound 0.00316 µM): 6.18%
viability, T/C (second compound 0.03 µM, first compound 0.01 µM): 6.2%
viability, T/C [13]: 6.46%
viability, T/C [14]: 5.05%
viability, T/C [15]: 3.47%
viability, T/C [16]: 4.42%
viability, T/C (second compound 0.0949 µM, first compound 0.00316 µM): 4.43%
viability, T/C (second compound 0.0949 µM, first compound 0.01 µM): 4.18%
viability, T/C [17]: 4.08%
viability, T/C [18]: 3.58%
viability, T/C [19]: 2.79%
viability, T/C [20]: 2.41%
viability, T/C (second compound 0.3 µM, first compound 0.00316 µM): 3.51%
viability, T/C (second compound 0.3 µM, first compound 0.01 µM): 3.18%
viability, T/C [21]: 3.3%
viability, T/C [22]: 2.52%
viability, T/C [23]: 3.52%
viability, T/C [24]: 2.26%
